Reference: patent publication US9102648B1, “Bioavailable diacylhydrazine ligands for modulating the expression of exogenous genes via an ecdysone receptor complex” (Intrexon Corporation, priority 2003, dated 2015)

Target: T1, Bombyx mori EcR (VP16 fusion, CVBE switch construct) (Bombyx mori, UniProt P49881)
T1 sequence (P49881 86-606): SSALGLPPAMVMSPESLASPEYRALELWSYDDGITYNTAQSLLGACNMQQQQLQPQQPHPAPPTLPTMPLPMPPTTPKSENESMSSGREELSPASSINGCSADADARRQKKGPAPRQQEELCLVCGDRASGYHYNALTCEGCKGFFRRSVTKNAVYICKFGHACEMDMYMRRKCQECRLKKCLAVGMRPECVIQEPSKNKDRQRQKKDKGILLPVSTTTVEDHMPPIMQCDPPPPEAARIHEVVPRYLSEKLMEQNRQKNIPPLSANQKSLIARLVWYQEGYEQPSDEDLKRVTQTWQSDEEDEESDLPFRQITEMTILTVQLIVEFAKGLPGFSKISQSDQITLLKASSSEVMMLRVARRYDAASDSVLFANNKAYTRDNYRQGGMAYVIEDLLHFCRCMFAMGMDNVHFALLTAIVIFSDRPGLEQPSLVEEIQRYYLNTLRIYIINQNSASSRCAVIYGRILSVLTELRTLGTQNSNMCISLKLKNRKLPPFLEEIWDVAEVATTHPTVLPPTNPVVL
T1 sequence (P19793 1-462 partner): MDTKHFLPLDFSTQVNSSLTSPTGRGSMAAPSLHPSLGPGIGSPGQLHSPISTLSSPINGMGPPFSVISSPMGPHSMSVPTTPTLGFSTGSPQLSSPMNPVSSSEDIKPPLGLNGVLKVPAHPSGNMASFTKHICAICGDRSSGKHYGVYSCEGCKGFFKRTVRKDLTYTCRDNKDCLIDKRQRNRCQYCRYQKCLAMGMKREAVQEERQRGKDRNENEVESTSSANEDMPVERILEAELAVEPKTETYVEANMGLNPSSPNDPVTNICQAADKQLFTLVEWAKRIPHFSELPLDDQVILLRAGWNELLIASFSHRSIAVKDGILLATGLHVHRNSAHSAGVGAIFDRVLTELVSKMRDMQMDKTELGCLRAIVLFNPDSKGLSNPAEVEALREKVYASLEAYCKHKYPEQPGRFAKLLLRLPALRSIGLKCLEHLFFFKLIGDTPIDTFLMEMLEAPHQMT
Experiment: Z3 Assay (HEK-293 cells with CVBE and 6XEcRE LacZ, β-galactosidase reporter)
Conditions: for Fold Induction, Z3 Assay, 3.3 uM: 3.3 uM ligand; for Fold Induction, Z3 Assay, 3.3 uM / Fold Induction, Z3 Assay, 33 uM: ligand treated / DMSO treated cells; for Fold Induction, Z3 Assay, 3.3 uM / Fold Induction, Z3 Assay, 33 uM / EC50: average of two wells; for Fold Induction, Z3 Assay, 33 uM: 33 uM ligand; for Z3 assay Rel Max FI: maximum fold induction at any concentration relative to that of GS-E ligand; for Z3 assay Rel Max FI / EC50: HEK-293 Z3 cells; for EC50: read-out: Z3 assay EC50, β-galactosidase reporter

| Structure (SMILES) | Fold Induction, Z3 Assay, 3.3 uM | Fold Induction, Z3 Assay, 33 uM | Z3 assay Rel Max FI | EC50 [nM] |
| --- | --- | --- | --- | --- |
| COc1cc(Cl)ccc1C(=O)N(NC(=O)c1cccc(OC)c1C)C(C)(C)C [RG-100848] | 885 | 26 | 0.996 | 240 |
| CCc1ccc(C(=O)NN(C(=O)c2cc(C)c(C)c(Cl)c2)C(C)(C)C)cc1 [RG-101863] | 832 | 374 | 0.953 | 257 |
| CCc1c(C(=O)NN(C(=O)c2cc(C)cc(C)c2)C(C)(C)C)ccc2c1OC(C)O2 (stereo not drawn) [RG-101659] | 954 | 876 | – | 214 |
| Cc1cc(C)cc(C(=O)N(NC(=O)c2cc3c(cc2C)OCO3)C(C)(C)C)c1 [RG-101088] | – | 302 | – | 4070 |
| Cc1cc(C)cc(C(=O)N(NC(=O)c2cc3c(cc2Cl)OCO3)C(C)(C)C)c1 [RG-101171] | – | 268 | – | 3240 |
| COc1cccc(C(=O)NN(C(=O)c2cc(C)cc(Br)c2)C(C)(C)C)c1C [RG-101353] | 530 | 439 | 1.078 | 107 |
| CCc1ccc(C(=O)NN(C(=O)c2ccccc2[N+](=O)[O-])C(C)(C)C)cc1 [RG-101013] | 1039 | 846 | 0.720 | 1480 |
| Cc1cc(C)cc(C(=O)N(NC(=O)c2ccc3c(c2Br)OCCO3)C(C)(C)C)c1 [RG-101340] | 866 | 432 | 1.126 | 234 |
| COc1cc(C)ccc1C(=O)N(NC(=O)c1cccc(OC)c1C)C(C)(C)C [RG-100769] | 1096 | 542 | 1.109 | 219 |
| C=Cc1c(OC)cccc1C(=O)NN(C(=O)c1cc(C)cc(C)c1)C(C)(C)C [RG-102021] | 417 | – | 0.920 | 513 |
| CCc1ccc(C(=O)NN(C(=O)c2ccccc2CC)C(C)(C)C)cc1 [RG-102592] | 746 | 574 | 0.699 | 3890 |
| COc1cccc(C(=O)NN(C(=O)c2cc(C)ccc2Cl)C(C)(C)C)c1Cl [RG-101248] | – | 375 | – | 1440 |
| COc1cc(C(=O)NN(C(=O)c2cc(C)cc(C)c2)C(C)(C)C)ccc1C [RG-101585] | – | 330 | – | 4900 |
| COc1ccc(C(=O)NN(C(=O)c2ccc(F)cc2Cl)C(C)(C)C)cc1 [RG-101057] | 632 | 930 | 0.697 | 4470 |
| Cc1cc(C)cc(C(=O)N(NC(=O)c2cccc(OC(F)(F)F)c2C)C(C)(C)C)c1 [RG-101692] | 435 | 860 | 0.975 | 309 |
| CC(C)(C)N(NC(=O)c1c(F)cccc1F)C(=O)c1cc(Cl)cc(Cl)c1 [RG-100801] | – | 153 | – | 891 |
| CCc1c(C(=O)NN(C(=O)c2cccc(C)c2)C(C)(C)C)ccc2c1OCCO2 [RG-101036] | 767 | 404 | 1.049 | 54 |

| Structure (SMILES) | Fold Induction, Z3 Assay, 3.3 uM | Fold Induction, Z3 Assay, 33 uM | Z3 assay Rel Max FI | EC50 [nM] |
| --- | --- | --- | --- | --- |
| CCc1ccc(C(=O)NN(C(=O)c2cc(C)cc(C)c2)C(C)C(C)(C)C)cc1 (stereo not drawn) [RG-103451] | 67 | 118 | 1.054 | 83 |
| CCc1c(OC)cccc1C(=O)NN(C(=O)c1ccc(Cl)cc1OC)C(C)(C)C [RG-101218] | 886 | 398 | 0.998 | 316 |
| CC(=O)c1cccc(C(=O)NN(C(=O)c2cc(C)cc(C)c2)C(C)(C)C)c1C [RG-100814] | 410 | 1279 | – | 1150 |
| CC(C)(C)N(NC(=O)c1ccc2c(c1)OCO2)C(=O)c1ccc(F)cc1Cl [RG-101048] | – | 283 | – | 19100 |
| Cc1cc(C)cc(C(=O)N(NC(=O)c2ccc(CC#N)cc2)C(C)(C)C)c1 [RG-100875] | 1006 | 1081 | 0.818 | 2040 |
| Cc1cc(C)cc(C(=O)N(NC(=O)c2ccc3c(c2)OC(C)O3)C(C)(C)C)c1 (stereo not drawn) [RG-101511] | 947 | 487 | 1.122 | 468 |
| COc1cccc(C(=O)NN(C(=O)c2cc(Cl)cc(Br)c2)C(C)(C)C)c1C [RG-101408] | 780 | 398 | 1.118 | 148 |
| COCc1c(OC)cccc1C(=O)NN(C(=O)c1cc(C)cc(C)c1)C(C)(C)C [RG-115117] | 7 | – | 0.36 | 3930 |
| COc1cc(C(=O)N(NC(=O)c2cccc(OC)c2C)C(C)(C)C)ccc1C [RG-100768] | 1246 | 425 | 1.129 | 214 |
| CCc1ccc(C(=O)NN(C(=O)c2cc(C)cc(Cl)c2)C(C)(C)C)cc1 [RG-101774] | 631 | 429 | 0.943 | 155 |
| COc1ccccc1C(=O)N(NC(=O)c1ccc2c(c1C)OCOC2)C(C)(C)C [RG-100216] | – | 398 | – | 1780 |
| Cc1cc(C)cc(C(=O)N(NC(=O)c2ccc3c(c2)COCO3)C(C)(C)C)c1 [RG-101016] | – | 394 | – | 2000 |
| CCc1c(OC)cccc1C(=O)NN(C(=O)c1cc(OC)cc(OC)c1)C(C)(C)C [RG-100778] | – | 365 | 1.000 | 513 |
| COc1cccc(C(=O)NN(C(=O)c2cccnc2Cl)C(C)(C)C)c1C [RG-100127] | – | 245 | – | 4680 |
| CCc1ccc(C(=O)NN(C(=O)c2cc(C)cc(C)c2)C(C)(C)C)cc1Cl [RG-101864] | 796 | 494 | 1.075 | 245 |
| COc1cccc(C(=O)NN(C(=O)c2ccc(Cl)cc2F)C(C)(C)C)c1C [RG-100929] | – | 490 | – | 631 |
| CCc1cccc(C(=O)NN(C(=O)c2cc(C)cc(C)c2)C(C)(C)C)c1C [RG-101691] | 654 | 1089 | 1.068 | 174 |
